# Test results as given in patent publication US9663496B2, “AMPK-activating heterocyclic compounds and methods for using the same” (Rigel Pharmaceuticals, Inc., priority 2010, dated 2017).
# pEC50: −log10 of the molar value.
# Biological target: AMPK
# Assay: AMPK activation, enzyme-linked immunosorbent assay
# Format: biochemical
# Conditions: EC50 for AMPK activation, ELISA
# Procedure: Compounds were assayed for their ability to activate AMPK using an enzyme-linked immunosorbent assay. Reagents and procedures for measuring AMPK activation are well known and kits for AMPK activation assays are commercially available.
row,Structure (SMILES),pEC50
1,"CS(=O)(=O)c1ccc(C(=O)C2CCN(C(=O)c3ccc(C(=O)N[C@@H]4CCN(Cc5ccc(C#N)cc5)C[C@H]4F)nc3)CC2)cc1 (relative stereo) [Compound 252, N-((trans)-1-(4-cyanobenzyl)-3-fluoropiperidin-4-yl)-5-(4-(4-(methylsulfonyl)benzoyl)piperidine-1-carbonyl)picolinamide]",6.00 to 6.30
2,"CS(=O)(=O)c1ccc(C(=O)C2CCN(C(=O)c3ccc(C(=O)N[C@@H]4CCN(Cc5ccc(OC(F)(F)F)cc5)C[C@H]4F)nc3)CC2)cc1 (relative stereo) [Compound 253, N-((trans)-3-fluoro-1-(4-(trifluoromethoxy)benzyl)piperidin-4-yl)-5-(4-(4-(methylsulfonyl)benzoyl)piperidine-1-carbonyl)picolinamide]",6.00 to 6.30
3,"CS(=O)(=O)c1ccc(OC2CCN(C(=O)c3ccc(C(=O)N[C@@H]4CCN(Cc5ccc(C#N)cc5)C[C@H]4F)nc3)CC2)cc1 (relative stereo) [Compound 254, N-((trans)-1-(4-cyanobenzyl)-3-fluoropiperidin-4-yl)-5-(4-(4-(methylsulfonyl)phenoxy)piperidine-1-carbonyl)picolinamide]",> 6.30
4,"CS(=O)(=O)c1ccc(OC2CCN(C(=O)c3ccc(C(=O)N[C@@H]4CCN(Cc5ccc(OC(F)(F)F)cc5)C[C@H]4F)nc3)CC2)cc1 (relative stereo) [Compound 255, N-((trans)-3-fluoro-1-(4-(trifluoromethoxy)benzyl)piperidin-4-yl)-5-(4-(4-(methylsulfonyl)phenoxy)piperidine-1-carbonyl)picolinamide]",> 6.30
5,"N#Cc1ccc(CN2CCC(NC(=O)c3ccc(C(=O)N4CC[C@H](Oc5ccc(C#N)cc5)[C@@H](F)C4)cn3)CC2)cc1 (relative stereo) [Compound 279, N-(1-(4-cyanobenzyl)piperidin-4-yl)-5-((trans)-4-(4-cyanophenoxy)-3-fluoropiperidine-1-carbonyl)picolinamide]",> 6.30
6,"COc1ccc(C(=O)C2CCN(C(=O)c3ccc(C(=O)N[C@@H]4CCN(Cc5ccc(C#N)cc5)C[C@H]4F)cn3)CC2)cc1 (relative stereo) [Compound 349, N-((trans)-1-(4-cyanobenzyl)-3-fluoropiperidin-4-yl)-6-(4-(4-methoxybenzoyl)piperidine-1-carbonyl)nicotinamide]",> 6.30
7,"COc1ccc(C(=O)C2CCN(C(=O)c3ccc(C(=O)N[C@@H]4CCN(Cc5ccc(OC(F)(F)F)cc5)C[C@H]4F)cn3)CC2)cc1 (relative stereo) [Compound 350, N-((trans)-3-fluoro-1-(4-(trifluoromethoxy)benzyl)piperidin-4-yl)-6-(4-(4-methoxybenzoyl)piperidine-1-carbonyl)nicotinamide]",> 6.30
8,"COc1ccc(C(=O)C2CCN(C(=O)c3ccc(C(=O)N[C@@H]4CCN(Cc5ccc(OC(C)C)cc5)C[C@H]4F)cn3)CC2)cc1 (relative stereo) [Compound 353, N-((trans)-3-fluoro-1-(4-isopropoxybenzyl)piperidin-4-yl)-6-(4-(4-methoxybenzoyl)piperidine-1-carbonyl)nicotinamide]",> 6.30
9,"COc1ccc(C(=O)C2CCN(C(=O)c3ccc(C(=O)N[C@@H]4CCN(Cc5ccc(C#N)c(F)c5)C[C@H]4F)cn3)CC2)cc1 (relative stereo) [Compound 354, N-((trans)-1-(4-cyano-3-fluorobenzyl)-3-fluoropiperidin-4-yl)-6-(4-(4-methoxybenzoyl)piperidine-1-carbonyl)nicotinamide]",> 6.30
10,"COc1ccc(C(=O)C2CCN(C(=O)c3ccc(C(=O)N[C@H]4CCN(Cc5ccc(C#N)cc5)C[C@H]4F)cn3)CC2)cc1 (relative stereo) [Compound 454, N-((cis)-1-(4-cyanobenzyl)-3-fluoropiperidin-4-yl)-6-(4-(4-methoxybenzoyl)piperidine-1-carbonyl)nicotinamide]",> 6.30
11,"N#Cc1ccc(CN2CCC(NC(=O)c3ccc(C(=O)N4CCC(Oc5ccc(S(=O)(=O)C(F)(F)F)cc5)CC4)nc3)C(F)C2)cc1 (stereo in doubt) [Compound 451, N-((3S,4R)-1-(4-cyanobenzyl)-3-fluoropiperidin-4-yl)-6-(4-(4-(trifluoromethylsulfonyl)phenoxy)piperidine-1-carbonyl)nicotinamide]",> 6.30
12,"N#Cc1ccc(CN2CCC(NC(=O)c3ccc(C(=O)Nc4cccc(Cc5ccccc5)c4)cn3)CC2)cc1 [Compound 5, N^2-(1-(4-cyanobenzyl)piperidin-4-yl)-N^5-(3-benzylphenyl)pyridine-2,5-dicarboxamide]",6.00 to 6.30
13,"O=C(NC1CCN(C(=O)C2CCCCC2)CC1)c1ccc(C(=O)N2CCN(Cc3ccc(F)cc3)CC2)cn1 [Compound 7, N-(1-(cyclohexanecarbonyl)piperidin-4-yl)-5-(4-(4-fluorobenzyl)piperazine-1-carbonyl)picolinamide]",> 6.30
14,O=C(Nc1ccc(-c2ccccc2)cc1)c1ccc(C(=O)N2CCN(Cc3ccc(F)cc3)CC2)cn1 [Compound 11],> 6.30

# Results, then the compound that gave them:
row,pEC50,Structure (SMILES)
1,5.00 to 5.30,"O=C(N[C@@H]1CCNC[C@@H]1F)c1ccc(C(=O)N2CCN(Cc3ccc(F)cc3)CC2)cn1 (relative stereo) [Compound 102, 5-(4-(4-fluorobenzyl)piperazine-1-carbonyl)-N-(cis-3-fluoropiperidin-4-yl)picolinamide]"
2,> 6.30,"O=C(N[C@@H]1CCN(Cc2ccncc2)C[C@@H]1F)c1ccc(C(=O)N2CCN(Cc3ccc(F)cc3)CC2)cn1 (relative stereo) [Compound 104, N-(cis-3-fluoro-1-(pyridin-4-ylmethyl)piperidin-4-yl)-5-(4-(4-fluorobenzyl)piperazine-1-carbonyl)picolinamide]"
3,> 6.30,"O=C(N[C@@H]1CCN(Cc2ccc(Cl)cc2)C[C@@H]1F)c1ccc(C(=O)N2CCN(Cc3ccc(F)cc3)CC2)cn1 (relative stereo) [Compound 127, N-(cis-1-(4-chlorobenzyl)-3-fluoropiperidin-4-yl)-5-(4-(4-fluorobenzyl)piperazine-1-carbonyl)picolinamide]"
4,6.00 to 6.30,"O=C(c1ccc(C(=O)N2CCN(Cc3ccc(F)cc3)CC2)nc1)N1CCN(Cc2ccc(F)cc2)CC1 [Compound 3, pyridine-2,5-diylbis((4-(4-fluorobenzyl)piperazin-1-yl)methanone)]"
5,6.00 to 6.30,"N#Cc1ccc(C(=O)N2CCC(NC(=O)c3ccc(C(=O)N4CCN(Cc5ccc(F)cc5)CC4)cn3)CC2)cc1 [Compound 4, N-(1-(4-cyanobenzoyl)piperidin-4-yl)-5-(4-(4-fluorobenzyl)piperazine-1-carbonyl)picolinamide]"
6,> 6.30,"O=C(NC1CCN(C(=O)c2ccccc2)CC1)c1ccc(C(=O)N2CCN(Cc3ccc(F)cc3)CC2)cn1 [Compound 8, N-(1-(benzoyl)piperidin-4-yl)-5-(4-(4-fluorobenzyl)piperazine-1-carbonyl)picolinamide]"
7,> 6.30,"N#Cc1ccc(Cn2ccc(NC(=O)c3ccc(C(=O)N4CCN(Cc5ccc(F)cc5)CC4)cn3)n2)cc1 [Compound 9, N-(1-(4-cyanobenzyl)-1H-pyrazol-3-yl)-5-(4-(4-fluorobenzyl)piperazine-1-carbonyl)picolinamide]"
8,5.00 to 5.30,O=C(Nc1cccc(-c2ccccc2)c1)c1ccc(C(=O)N2CCN(Cc3ccc(F)cc3)CC2)cn1 [Compound 12]
